In publication PMC11123692, “Sugar-Based Surfactants: Effects of Structural Features on the Physicochemical Properties of Sugar Esters and Their Comparison to Commercial Octyl Glycosides” (Molecules, 2024):
In brackets after ≈: the same amount, converted by molar mass. Several values for one entry are separate records, joined by “and”; a condition that tells them apart may be missing. Equal entries are not always repeated. Where two headings read alike, the source gives them in different places.

How the values were obtained:
[1] = Krafft temperature (Tk) by visual examination and DSC of molecule/water systems; assay type: physicochemical; settings: in water; observation and DSC; average ± SD of at least two measurements
Source text: (§1) Water solubility reflects the ability of a particular molecule to dissolve and its interaction with water. To characterize the water solubility of most amphiphile molecules, especially the ionic surfactants, the Krafft point (Tk) is often used, referring to the critical temperature above which micelles form or the melting point of the hydrated solid surfactant. Two general approaches were used to measure the Tks of the molecules investigated herein: (1) a visual examination of the dissolution phenomenon for binary molecule/water systems, and (2) a quantitative measurement by using differential scanning calorimetry (DSC) analysis. The visual observation procedure is detailed below. We start with adding the molecule into 5–50 mL water, in a concentration range between 10^−2 mM and 10^3 mM (corresponding to a range of a surfactant mass concentration well below 20%), keeping the suspension under stirring for a certain time at room temperature (RT). Consequently, molecules can be classified into two major types: those soluble in water at RT and others insoluble at RT, with the solubility limit being called S (expressed in mM). The aspect of the sample, either transparent or turbid, is determined by direct visual examination. Tk determination with DSC is particularly applicable in the case of molecules insoluble at RT, for which a concentrated binary molecule/water mixture with a mass fraction of 20% of each molecule (C >> CMC in most cases) was prepared at 65 °C under stirring for 30 min to obtain a homogeneous system. These pre-homogenized aqueous systems were cooled and conserved in a refrigerator at 4 °C for a suitable period (>7 days), during which equilibrated hydrated crystals formed and precipitated. Then, for each molecule, about a 200–400 mg crystal sample was taken and put into the calorimeter cell. The first equilibrium phase was programmed at 4 °C for 1 h, followed by a slow heating stage from 4 °C to 65 °C at a rate of 0.5 °C/min. Tk was determined based on the location of the endothermic peak on the DSC curve, if any. All agitations were performed using a standard magnetic hotplate stirrer, MR 3001K (Heidolph Instruments, Schwabach, Germany). DSC curves were obtained from a commercial µDSC7 evo calorimeter (SETARAM Instrumentation, Caluire-et-Cuire, France). Tks are reported as the averages of at least two measurements as well as their standard deviations.

[2] = Water solubility limit by visual examination (transparent/turbid); assay type: physicochemical; settings: for solubility: thermodynamic from solid, read-out: Solubility Limit (S/mM)
Source text: as §1, with “We start with adding the molecule into 5–50 mL water, in a concentration range between 10^−2 mM and 10^3 mM (corresponding to a range of a surfactant mass concentration well below 20%), keeping the suspension under stirring for a certain time at room temperature (RT).” left out

[3] = Equilibrium surface tension, Wilhelmy plate method (CMC, γcmc, Amin and derived quantities); assay type: physicochemical; settings: for Amin: from Gibbs adsorption equation
Method: CMCs are determined from the inflections in the plots of equilibrium surface tension against the logarithm of the concentration. For the interested reader, the Gibbs-free energy of micellization, ΔGmic, the Gibbs-free energy of adsorption, ΔGads, and the efficiency of surfactant adsorption pC20 were calculated based on their definitions, as presented in Table 2.
The surface activity reflects the amphiphiles’ adsorption behavior on the air–aqueous solution interface. The surface tension (γ) was obtained using the Wilhelmy plate method with a K100 Processor Tensiometer (KRUSS, Hamburg, Germany). Both the critical micellar concentration (CMC) and equilibrium surface tension at the CMC (γcmc) were derived from the typical plot of surface tension (γ) against the logarithm of concentration (Log C). The surface excess (Γmax) and minimal area per molecule at the air–aqueous solution interface (Amin) at different temperatures were calculated from the Gibbs adsorption equation [3, 46]:(2) Γmax=−1/2.303RT(dγ/dlogc) and (3) Amin=10^20/NAΓmax where R is the ideal gas constant, 8.31 J∙mol^−1∙K^−1; T is the measuring temperature, K; γ is the surface tension, N/m; c is the concentration, mol.L^−1; Amin is the minimal area per molecule, Å^2, and NA is Avogadro’s number, 6.022·10^23 mol^−1.
For each molecule, several solutions of a wide range of concentrations were prepared. Before measuring, each solution was finely homogenized with the help of a magnetic stirring bar. The stirring time was fixed at 30 min in all cases. […] Then, measurements were performed once for each concentration, at the solution preparation’s temperature, with an uncertainty of ±1 °C.

[4] = set-up: method as in doi:10.1039/C4MD00122B; settings: ITC at 25 °C; cited from earlier work
[5] = Precipitation on cooling previously heated 50 mM aqueous solutions; assay type: physicochemical; settings: 50 mM in water
Method: For commercial alkyl glucosides, the Tk decreases in the following sequence: C8αGlc > C8βGal >> C8βGlc ≈ C8αGal. […] The obtained Tk for C8αGlc is around 40 °C in accordance with previously published values. However, as determined by the same experimental protocol, the Tk for C8βGal is about 29 °C, much lower than 42 °C derived from the phase diagram reported by Sakya et al. A possible explanation is that Sakya et al. synthesized and purified C8βGal by themselves, whereas we carried our measurements on commercially purchased C8βGal. […] For this reason, we assume that many researchers have been able to investigate their aqueous solutions at 25 °C, as mentioned in the introduction. In addition, when cooling the previously heated solutions with the same molecular concentration of 50 mM, we noted that C8αGlc precipitated much faster than C8βGal. […] This may, to some extent, be explained by a more favorable crystal structure for C8αGlc than C8βGal. With regard to C8αGal, which is presented in commercial samples as a highly viscous liquid, we expect it to have the weakest crystal structure and a very low Tk value. However, our experimental methods cannot give its exact Tk. […]

[6] = cited from earlier work; for CMC / γcmc: Wilhelmy plate method at 25 °C
[7] = cited from earlier work

| solubility ([2]; water, water, at RT) | C20 ([3]; T = 25 °C) | pC20 ([3]; T = 25 °C) | ΔGads ([3]; T = 25 °C) | ΔGmic ([3]; T = 25 °C) | CMC ([3]; T = 25 °C (T > Tk)) | γcmc ([3]; T = 25 °C (T > Tk)) | Amin ([3]; T = 25 °C) | solubility ([2]; water, water, at T > Tk) | precipitation when cooling the previously heated solution [5] | SMILES | CMC [4] | CMC [6] | γcmc [6] | also measured |
| --- | --- | --- | --- | --- | --- | --- | --- | --- | --- | --- | --- | --- | --- | --- |
| > 100 mM | 3.8 mM | 2.4 | -6.4 kcal/mol | -3.6 kcal/mol | 51.7 mM and 51.7 ± 1.5 mM | 29.5 ± 0.2 mN/m | 45.8 ± 0.9 Å^2/molecule | – | – | CCCCCCCCO[C@H]1O[C@H](CO)[C@H](O)[C@H](O)[C@H]1O [Molecule C8αGal, Octyl α-D-galactopyranoside, reference compound] | 30.2 ± 0.4 mM | – | – | Tk (Krafft temperature) [1]: <4 °C |
| – | – | – | – | – | – | – | – | > 100 mM | within an hour | CCCCCCCCO[C@H]1O[C@H](CO)[C@@H](O)[C@H](O)[C@H]1O [Molecule C8αGlc, Octyl α-D-glucopyranoside, reference compound] | – | 12 mM | 30.5 mN/m | Solubility Limit (S/mM) ([2]; water, at RT): insoluble; C20 ([3]; T = 50 °C): 2.8 mM; pC20 ([3]; T = 50 °C): 2.6; ΔGads ([3]; T = 50 °C): -7.0 kcal/mol; ΔGmic ([3]; T = 50 °C): -4.7 kcal/mol; CMC ([3]; T = 50 °C (T > Tk)): 15.5 mM and 15.5 ± 0.5 mM; γcmc ([3]; T = 50 °C (T > Tk)): 30.7 mN/m and 30.7 ± 0.3 mN/m; Amin ([3]; T = 50 °C): 43 ± 1.8 Å^2/molecule |
| > 100 mM | 2.7 mM | 2.6 | -6.4 kcal/mol | -4.1 kcal/mol | 21.2 mM and 21.2 ± 0.8 mM | 31.0 ± 0.15 mN/m | 38.5 ± 1.9 Å^2/molecule | – | – | CCCCCCCCO[C@@H]1O[C@H](CO)[C@@H](O)[C@H](O)[C@H]1O [Molecule C8βGlc, octyl β-D-glucopyranoside, reference compound] | – | – | – | solubility relative to octyl-α-D-glucoside (C8αGlc) ([7]; ref 25): about seven times larger; Amin ([6]; ref 23): 38 Å^2/molecule; Amin ([6]; ref 46): 42 Å^2/molecule |
| 10 to 20 mM (≈ 2.92 to 5.85 mg/mL) | – | – | – | – | – | – | – | > 100 mM | no change was observed over one month | CCCCCCCCO[C@@H]1O[C@H](CO)[C@H](O)[C@H](O)[C@H]1O [Molecule C8βGal, octyl β-D-galactopyranoside, reference compound] | 31.7 ± 0.7 mM | 16 mM | 30.5 mN/m | aspect of solution ([2]; 20 mM in water at room temperature): nearly transparent; C20 ([3]; T = 40 °C): 3.2 mM; pC20 ([3]; T = 40 °C): 2.5; ΔGads ([3]; T = 40 °C): -7.1 kcal/mol; ΔGmic ([3]; T = 40 °C): -4.4 kcal/mol; CMC ([3]; T = 40 °C (T > Tk)): 20 mM and 20 ± 1 mM; γcmc ([3]; T = 40 °C (T > Tk)): 28.5 mN/m and 28.5 ± 0.5 mN/m; Amin ([3]; T = 40 °C): 46.3 ± 1.7 Å^2/molecule; Tk ([7]; derived from the phase diagram of Sakya et al.): 42 °C |
